In patent US4110327A, “2,3 Diketo-piperazinocarbonylamino alkanoic acids and derivatives” (Toyama Chemical Co., Ltd., priority 1974, dated 1978):
In brackets after ≈: the same amount, converted by molar mass.

What was measured:
Type in all cases: cell-based
Salmonella typhi = experiment: MIC against clinical isolates; conditions: unit assumed
Shigella sonnei = experiment: MIC against clinical isolates; conditions: unit assumed
Method: (§1) The minimum inhibitory concentrations (MIC) was determined by the plate method disclosed in "Chemotherapy" (Japan), Vol. 16, (1968), pages 98 - 99. The culture medium used was a Heart infusion agar (pH 7.4). The number of the cells per plate used in the inoculum as 10^4 (10^6 cells/ml).
(§2) MIC was determined in the same manner as in the preceding paragraph (1).

Shigella flexneri = experiment: MIC against clinical isolates; conditions: unit assumed
Method: as §1, §2

Salmonella typhi-murium = experiment: MIC against clinical isolates; conditions: unit assumed
Escherichia coli = experiment: MIC against clinical isolates; conditions: unit assumed
Staphylococcus aureus = experiment: MIC against clinical isolates; conditions: unit assumed
Klebsiella pneumoniae [1] = experiment: MIC against clinical isolates; conditions: unit assumed
Pseudomonas aeruginosa = experiment: MIC against clinical isolates; conditions: unit assumed
Proteus vulgaris 3027 = experiment: MIC against standard strain, plate method; conditions: Proteus vulgaris 3027, standard strain; unit assumed
Procedure, shortened: (§3)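 Cells at 10^6 cells/ml were spotted to give 10^4 cells per plate on heart infusion agar adjusted to pH 7.4. The minimum inhibitory concentration was then read.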

Escherichia coli NIHJ = experiment: MIC against standard strain, plate method; conditions: unit assumed
Procedure, shortened: as §3

[2] = test system: Staphylococcus aureus 209p; experiment: MIC against standard strain, plate method; conditions: unit assumed
Procedure, shortened: as §3

[3] = test system: Pseudomonas aeruginosa I.F.O.; experiment: MIC against standard strain, plate method; conditions: unit assumed
Procedure, shortened: as §3

Klebsiella pneumoniae [4] = experiment: MIC against standard strain, plate method; conditions: unit assumed
Procedure, shortened: as §3

[5] = clinical isolate GN (number not given; Table 5-3)

## CC1(C)S[C@@H]2[C@H](NC(=O)C(C(=O)O)c3ccccc3)C(=O)N2[C@H]1C(=O)O (stereo partly shown) [Sodium Carbenicillum, reference compound]
Salmonella typhi; clinical isolate SL 819
  MIC: 6.25 µg/mL
Salmonella typhi; clinical isolate SL 2169
  MIC: 3.13 µg/mL
Shigella sonnei; clinical isolate JS 11232
  MIC: > 200 µg/mL
Shigella flexneri; clinical isolate JS 11215
  MIC: > 200 µg/mL
Salmonella typhi-murium; clinical isolate SL 858
  MIC: 12.5 µg/mL
Salmonella typhi-murium; clinical isolate SL 2136
  MIC: > 200 µg/mL

## CC(=O)N1CCN(C(=O)N[C@@H](C(=O)N[C@@H]2C(=O)N3[C@@H]2SC(C)(C)[C@@H]3C(=O)O)c2ccccc2)C(=O)C1 [compound 1]
Escherichia coli; clinical isolate GN 3465
  MIC: 200 µg/mL (≈ 386 µM)
Escherichia coli; clinical isolate K-2
  MIC: 25 µg/mL (≈ 48.3 µM)
Escherichia coli; clinical isolate K-3
  MIC: > 200 µg/mL
Staphylococcus aureus; clinical isolate F-2
  MIC: 3.13 µg/mL (≈ 6.05 µM)
Staphylococcus aureus; clinical isolate F-5
  MIC: > 200 µg/mL
Staphylococcus aureus; clinical isolate MS 8596
  MIC: 3.13 µg/mL (≈ 6.05 µM)
Staphylococcus aureus; clinical isolate MS 8619
  MIC: 1.57 µg/mL (≈ 3.03 µM)
Staphylococcus aureus; clinical isolate MS 8684
  MIC: 3.13 µg/mL (≈ 6.05 µM)
Staphylococcus aureus; clinical isolate MS 8713
  MIC: 3.13 µg/mL (≈ 6.05 µM)
Klebsiella pneumoniae [1]; clinical isolate GN 917
  MIC: 25 µg/mL (≈ 48.3 µM)
Klebsiella pneumoniae [1]; clinical isolate GN 3850
  MIC: 25 µg/mL (≈ 48.3 µM)
Klebsiella pneumoniae [1]; clinical isolate GN 4081
  MIC: > 200 µg/mL
Klebsiella pneumoniae [1]; clinical isolate GN 4117
  MIC: 200 µg/mL (≈ 386 µM)
Salmonella typhi; clinical isolate SL 819
  MIC: 6.25 µg/mL (≈ 12.1 µM)
Salmonella typhi; clinical isolate SL 2169
  MIC: 6.25 µg/mL (≈ 12.1 µM)
Shigella sonnei; clinical isolate JS 11232
  MIC: > 200 µg/mL
Shigella flexneri; clinical isolate JS 11215
  MIC: 100 µg/mL (≈ 193 µM)
Shigella flexneri; clinical isolate JS 11839
  MIC: 3.13 µg/mL (≈ 6.05 µM)
Salmonella typhi-murium; clinical isolate SL 858
  MIC: 12.5 µg/mL (≈ 24.2 µM)
Salmonella typhi-murium; clinical isolate SL 2136
  MIC: > 200 µg/mL
Pseudomonas aeruginosa; clinical isolate GN 82
  MIC: 25 µg/mL (≈ 48.3 µM)
Pseudomonas aeruginosa; clinical isolate GN 163
  MIC: 25 µg/mL (≈ 48.3 µM)
Pseudomonas aeruginosa; clinical isolate GN 221
  MIC: 25 µg/mL (≈ 48.3 µM)
Pseudomonas aeruginosa; clinical isolate GN 376
  MIC: 25 µg/mL (≈ 48.3 µM)
Pseudomonas aeruginosa; clinical isolate GN 383
  MIC: 50 µg/mL (≈ 96.6 µM)
Pseudomonas aeruginosa; clinical isolate GN 1035
  MIC: 100 µg/mL (≈ 193 µM)
Pseudomonas aeruginosa; clinical isolate GN 1091
  MIC: 25 µg/mL (≈ 48.3 µM)
Pseudomonas aeruginosa; clinical isolate GN 2565
  MIC: 50 µg/mL (≈ 96.6 µM)
Pseudomonas aeruginosa; clinical isolate GN 2987
  MIC: 25 µg/mL (≈ 48.3 µM)
Pseudomonas aeruginosa; [5]
  MIC: 25 µg/mL (≈ 48.3 µM)
Pseudomonas aeruginosa; clinical isolate S-1
  MIC: 50 µg/mL (≈ 96.6 µM)
Pseudomonas aeruginosa; clinical isolate S-2
  MIC: 100 µg/mL (≈ 193 µM)
Pseudomonas aeruginosa; clinical isolate S-3
  MIC: 50 µg/mL (≈ 96.6 µM)
Pseudomonas aeruginosa; clinical isolate S-4
  MIC: 50 µg/mL (≈ 96.6 µM)
Proteus vulgaris 3027
  MIC: 3.13 µg/mL (≈ 6.05 µM)
Escherichia coli NIHJ
  MIC: < 1.57 µg/mL
[2]
  MIC: < 1.57 µg/mL
[3]
  MIC: 25 µg/mL (≈ 48.3 µM)

## CC(=O)OCC1=C(C(=O)O)N2C(=O)[C@@H](NC(=O)Cc3cccs3)[C@H]2SC1 [Sodium Cephalothin, SodiumCephalothin, reference compound]
Escherichia coli; clinical isolate GN 3435
  MIC: 6.25 µg/mL
Escherichia coli; clinical isolate GN 3452
  MIC: 12.5 µg/mL
Escherichia coli; clinical isolate GN 3465
  MIC: 25 µg/mL
Escherichia coli; clinical isolate GN 3481
  MIC: 12.5 µg/mL
Escherichia coli; clinical isolate GN 3611
  MIC: 50 µg/mL
Escherichia coli; clinical isolate K-1
  MIC: 6.25 µg/mL
Escherichia coli; clinical isolate K-2
  MIC: 6.25 µg/mL
Escherichia coli; clinical isolate K-3
  MIC: 100 µg/mL
Escherichia coli; clinical isolate K-4
  MIC: 25 µg/mL
Staphylococcus aureus; clinical isolate F-1
  MIC: < 0.4 µg/mL
Staphylococcus aureus; clinical isolate F-2
  MIC: < 0.4 µg/mL
Staphylococcus aureus; clinical isolate F-3
  MIC: < 0.4 µg/mL
Staphylococcus aureus; clinical isolate F-4
  MIC: < 0.4 µg/mL
Staphylococcus aureus; clinical isolate F-5
  MIC: 1.56 µg/mL
Staphylococcus aureus; clinical isolate MS 8588
  MIC: < 0.4 µg/mL
Staphylococcus aureus; clinical isolate MS 8596
  MIC: < 0.4 µg/mL
Staphylococcus aureus; clinical isolate MS 8619
  MIC: < 0.4 µg/mL
Staphylococcus aureus; clinical isolate MS 8684
  MIC: < 0.4 µg/mL
Staphylococcus aureus; clinical isolate MS 8713
  MIC: < 0.4 µg/mL
Klebsiella pneumoniae [1]; clinical isolate GN 917
  MIC: 3.13 µg/mL
Klebsiella pneumoniae [1]; clinical isolate GN 4081
  MIC: 12.5 µg/mL
Klebsiella pneumoniae [1]; clinical isolate GN 4117
  MIC: 6.25 µg/mL
Pseudomonas aeruginosa; clinical isolate GN 82
  MIC: > 200 µg/mL
Pseudomonas aeruginosa; clinical isolate GN 163
  MIC: > 200 µg/mL
Pseudomonas aeruginosa; clinical isolate GN 221
  MIC: > 200 µg/mL
Pseudomonas aeruginosa; clinical isolate GN 244
  MIC: > 200 µg/mL
Pseudomonas aeruginosa; clinical isolate GN 376
  MIC: > 200 µg/mL
Pseudomonas aeruginosa; clinical isolate GN 383
  MIC: > 200 µg/mL
Pseudomonas aeruginosa; clinical isolate GN 1035
  MIC: > 200 µg/mL
Pseudomonas aeruginosa; clinical isolate GN 1091
  MIC: > 200 µg/mL
Pseudomonas aeruginosa; clinical isolate GN 2565
  MIC: > 200 µg/mL
Pseudomonas aeruginosa; clinical isolate GN 2987
  MIC: > 200 µg/mL
Pseudomonas aeruginosa; clinical isolate S-1
  MIC: > 200 µg/mL
Pseudomonas aeruginosa; clinical isolate S-2
  MIC: > 200 µg/mL
Pseudomonas aeruginosa; clinical isolate S-3
  MIC: > 200 µg/mL
Pseudomonas aeruginosa; clinical isolate S-4
  MIC: > 200 µg/mL
Proteus vulgaris 3027
  MIC: < 1.57 µg/mL
Escherichia coli NIHJ
  MIC: < 1.57 µg/mL
[2]
  MIC: < 1.57 µg/mL
[3]
  MIC: > 200 µg/mL
Klebsiella pneumoniae [4]
  MIC: 100 µg/mL

## CCCCN1CCN(C(=O)N[C@@H](C(=O)N[C@@H]2C(=O)N3[C@@H]2SC(C)(C)[C@@H]3C(=O)O)c2ccccc2)C(=O)C1 [compound 14]
Escherichia coli; clinical isolate GN 3465
  MIC: 50 µg/mL (≈ 94 µM)
Escherichia coli; clinical isolate K-2
  MIC: 12.5 µg/mL (≈ 23.5 µM)
Escherichia coli; clinical isolate K-3
  MIC: 200 µg/mL (≈ 376 µM)
Staphylococcus aureus; clinical isolate F-1
  MIC: 12.5 µg/mL (≈ 23.5 µM)
Staphylococcus aureus; clinical isolate F-5
  MIC: 200 µg/mL (≈ 376 µM)
Staphylococcus aureus; clinical isolate MS 8619
  MIC: 0.79 µg/mL (≈ 1.49 µM)
Klebsiella pneumoniae [1]; clinical isolate GN 917
  MIC: 25 µg/mL (≈ 47 µM)
Klebsiella pneumoniae [1]; clinical isolate GN 3850
  MIC: 12.5 µg/mL (≈ 23.5 µM)
Klebsiella pneumoniae [1]; clinical isolate GN 4081
  MIC: 50 µg/mL (≈ 94 µM)
Klebsiella pneumoniae [1]; clinical isolate GN 4117
  MIC: 50 µg/mL (≈ 94 µM)
Salmonella typhi; clinical isolate SL 819
  MIC: 6.25 µg/mL (≈ 11.8 µM)
Salmonella typhi; clinical isolate SL 2169
  MIC: 3.13 µg/mL (≈ 5.89 µM)
Shigella sonnei; clinical isolate JS 11232
  MIC: 25 µg/mL (≈ 47 µM)
Shigella flexneri; clinical isolate JS 11215
  MIC: 25 µg/mL (≈ 47 µM)
Salmonella typhi-murium; clinical isolate SL 858
  MIC: 1.57 µg/mL (≈ 2.95 µM)
Salmonella typhi-murium; clinical isolate SL 2136
  MIC: 200 µg/mL (≈ 376 µM)
Pseudomonas aeruginosa; clinical isolate GN 82
  MIC: 25 µg/mL (≈ 47 µM)
Pseudomonas aeruginosa; clinical isolate GN 163
  MIC: 25 µg/mL (≈ 47 µM)
Pseudomonas aeruginosa; clinical isolate GN 221
  MIC: 25 µg/mL (≈ 47 µM)
Pseudomonas aeruginosa; clinical isolate GN 376
  MIC: 50 µg/mL (≈ 94 µM)
Pseudomonas aeruginosa; clinical isolate GN 383
  MIC: 50 µg/mL (≈ 94 µM)
Pseudomonas aeruginosa; clinical isolate GN 1035
  MIC: 50 µg/mL (≈ 94 µM)
Pseudomonas aeruginosa; clinical isolate GN 1091
  MIC: 25 µg/mL (≈ 47 µM)
Pseudomonas aeruginosa; clinical isolate GN 2565
  MIC: 50 µg/mL (≈ 94 µM)
Pseudomonas aeruginosa; clinical isolate GN 2987
  MIC: 12.5 µg/mL (≈ 23.5 µM)
Pseudomonas aeruginosa; [5]
  MIC: 50 µg/mL (≈ 94 µM)
Pseudomonas aeruginosa; clinical isolate S-1
  MIC: 50 µg/mL (≈ 94 µM)
Pseudomonas aeruginosa; clinical isolate S-2
  MIC: 50 µg/mL (≈ 94 µM)
Pseudomonas aeruginosa; clinical isolate S-3
  MIC: 100 µg/mL (≈ 188 µM)
Pseudomonas aeruginosa; clinical isolate S-4
  MIC: 50 µg/mL (≈ 94 µM)
Proteus vulgaris 3027
  MIC: < 1.57 µg/mL
Escherichia coli NIHJ
  MIC: < 1.57 µg/mL
[2]
  MIC: < 1.57 µg/mL
[3]
  MIC: 25 µg/mL (≈ 47 µM)

## CC1(C)S[C@@H]2[C@H](NC(=O)C(c3ccccc3)S(=O)(=O)O)C(=O)N2[C@H]1C(=O)O (stereo partly shown) [Sodium Sulbenicillum, reference compound]
Salmonella typhi; clinical isolate SL 819
  MIC: 6.25 µg/mL
Salmonella typhi; clinical isolate SL 2169
  MIC: 1.57 µg/mL
Shigella sonnei; clinical isolate JS 11232
  MIC: > 200 µg/mL
Shigella sonnei; clinical isolate JS 11755
  MIC: > 200 µg/mL
Shigella flexneri; clinical isolate JS 11215
  MIC: > 200 µg/mL
Shigella flexneri; clinical isolate JS 11839
  MIC: 12.5 µg/mL
Salmonella typhi-murium; clinical isolate SL 858
  MIC: 25 µg/mL
Salmonella typhi-murium; clinical isolate SL 2136
  MIC: > 200 µg/mL
